The melting point is the temperature of the solid-liquid transition. For orientation: Emax means the greatest response seen or fitted, relative to the assay's reference.

The target in one data set is human mGluR5 (Homo sapiens, UniProt P41594). Kind of data set: Cell-based functional Ca2+ mobilization assay (FDSS), potentiation of glutamate EC20 response, HEK293A cells transfected with human mGluR5a (H10H or H12H cell line). The conditions noted are these: H10H cell line expressing recombinant human mGluR5, in presence of glutamate EC20, ** = compound is an antagonist; for Emax: HEK293-A, % of maximal glutamate response; for EC50: read-out: pEC50 (converted). For orientation: Calcium flux is commonly read through the fluorescence of an indicator in the cells.

The subject of data set [1] is amphetamine-induced hyperlocomotion in male Sprague-Dawley rats. The experiment in a line: Reversal of amphetamine-induced hyperlocomotion (rat hyperlocomotion assay). It is filed as in vivo. The conditions noted are these: vehicle 20% HP-β-CD. The protocol:
A suitable assay for determination of the in vivo effects of the disclosed compounds is the induced hyperlocomotion animal model. Briefly, locomotor activity can be assessed as mean distance traveled (cm) in standard 16×16 photocell testing chambers measuring 43.2 cm (Length)×43.2 cm (Width)×30.5 cm (Height) (Med Associates, St. Albans, Vt.). Animals are habituated to individual activity chambers for at least 30 min prior to drug administration. Following administration of drug or vehicle, activity is recorded for a 90 minute time period. Data are expressed as the mean (±SEM) distance traveled recorded in 5 min intervals over the test period. The data are analyzed using repeated measures analysis of variance (ANOVA) followed by post-hoc testing using Dunnett's test, when appropriate. A difference is considered significant when p≦0.05.
The study was carried out using male Sprague-Dawley rats weighing 225 g-275 g, between 2-3 months old (Harlan, Inc., Indianapolis, Ind.). They were kept in the animal care facility certified by the American Association for the Accreditation of Laboratory Animal Care (AALAC) under a 12-hour light/dark cycle (lights on: 6 a.m.; lights off: 6 p.m.) and had free access to food and water. The experimental protocols performed during the light cycle were approved by the Institutional Animals Care and Use Committee of Vanderbilt University and conformed to the guidelines established by the National Research Council Guide for the Care and Use of Laboratory Animals
Locomotor activity was assessed as mean distance traveled (cm) in Smart Open Field locomotor activity test chambers (Hamilton-Kinder, San Diego, Calif.) with 16×16 photobeams with chambers measuring 43.2 cm (Length)×43.2 cm (Width)×30.5 cm (Height) (Med Associates, St. Albans, Vt.). The animals were habituated for 30 min and then dosed with vehicle or test compound. The rats were then placed into cages. At 60 min, all rats were injected subcutaneously with 1 mg/kg amphetamine or vehicle and then monitored for an additional 60 min. Animals are monitored for a total of 120 minutes.
Data are expressed as the mean (±SEM) distance traveled recorded in 5 min intervals over the test period. The data was analyzed using repeated measures analysis of variance (ANOVA) followed by post-hoc testing using Dunnett's test, when appropriate. A difference was considered significant when p≦0.05. The data for the dose-response studies were analyzed by a between-group analysis of variance. If there was a main effect of dose, then each dose group was compared with the vehicle amphetamine group. The calculations were performed using JMP IN 8 (SAS Institute, Cary, N.C.) statistical software and graphed using SigmaPlot9 (Saugua, Mass.).
Amphetamine sulfate was obtained from Sigma (Cat #A5880-1G; St. Louis, Mo.) and 10 mg was dissolved in 10 ml of water. Test compound, 2-(benzyloxy)-5-[(4-fluorophenyl)carbonyl]-4,5,6,7-tetrahydropyrazolo[1,5-a]pyrazine, was formulated in a volume of 10 ml with an amount of drug appropriate to the dosage indicated. The appropriate amount of compound was mixed into a 20% 2-hydroxypropyl-β-cyclodextrin (2-HP-β-CD) solution. The solution was formulated so that animals were injected with a volume equal to […]. The mixture was then ultrahomogenized on ice for 2-3 minutes using the Dismembrator (Fisher Scientific Model 150T). Then the pH was checked using 0-14 EMD strips and adjusted to a pH of 6-7 if necessary. […]

Sequence of human mGluR5 (P41594 21-1180 isoform P41594-2 limits assumed): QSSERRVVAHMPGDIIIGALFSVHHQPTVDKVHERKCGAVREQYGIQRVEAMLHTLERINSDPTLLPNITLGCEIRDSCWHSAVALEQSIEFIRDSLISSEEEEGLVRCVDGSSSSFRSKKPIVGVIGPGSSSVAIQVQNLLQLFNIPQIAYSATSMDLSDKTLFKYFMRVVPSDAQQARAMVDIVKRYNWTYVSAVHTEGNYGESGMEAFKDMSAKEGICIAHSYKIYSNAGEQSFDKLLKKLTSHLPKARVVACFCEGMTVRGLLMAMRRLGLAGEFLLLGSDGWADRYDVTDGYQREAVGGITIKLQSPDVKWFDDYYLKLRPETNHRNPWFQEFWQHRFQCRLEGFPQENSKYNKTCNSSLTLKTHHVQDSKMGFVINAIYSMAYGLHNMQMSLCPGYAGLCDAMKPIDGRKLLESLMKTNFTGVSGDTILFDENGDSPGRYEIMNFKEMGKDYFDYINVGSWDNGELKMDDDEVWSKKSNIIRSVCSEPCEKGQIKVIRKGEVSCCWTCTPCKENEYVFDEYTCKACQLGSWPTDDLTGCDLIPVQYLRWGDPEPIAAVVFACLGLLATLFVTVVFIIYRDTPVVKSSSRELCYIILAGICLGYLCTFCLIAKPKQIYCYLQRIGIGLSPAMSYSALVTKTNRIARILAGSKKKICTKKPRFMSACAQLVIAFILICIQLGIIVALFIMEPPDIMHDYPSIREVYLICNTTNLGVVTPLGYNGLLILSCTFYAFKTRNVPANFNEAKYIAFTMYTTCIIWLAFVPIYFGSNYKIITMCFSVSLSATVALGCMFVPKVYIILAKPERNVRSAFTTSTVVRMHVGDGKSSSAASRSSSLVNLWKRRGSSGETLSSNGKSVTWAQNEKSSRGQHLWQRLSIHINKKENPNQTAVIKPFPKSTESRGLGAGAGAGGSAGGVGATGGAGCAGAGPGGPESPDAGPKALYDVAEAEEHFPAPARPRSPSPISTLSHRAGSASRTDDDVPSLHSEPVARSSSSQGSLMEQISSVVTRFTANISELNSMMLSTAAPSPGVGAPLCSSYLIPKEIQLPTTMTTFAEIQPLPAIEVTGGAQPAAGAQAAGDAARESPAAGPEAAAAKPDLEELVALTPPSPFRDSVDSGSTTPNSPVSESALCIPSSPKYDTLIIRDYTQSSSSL

In the case of `O=C(c1ccc(F)c(C(F)(F)F)c1)N1CCn2nc(OCc3ccccc3)cc2C1` [Example B109], the melting point is 135.3 °C. Also, the maximum response (Emax) at human mGluR5 amounted to 58%.

On to `N#Cc1ccc(COc2cc3n(n2)CCN(C(=O)c2ccccc2)C3)cc1` [Example B110], for which the melting point amounted to 155.6 °C. At human mGluR5, the EC50 is over 30200 nM and the Emax was found to be 30%.

Consider `O=C(c1cccc(Cl)c1)N1CCn2nc(OCc3ccc(F)cc3)cc2C1` [Example B111], for which the melting point is 125.2 °C. On human mGluR5, the EC50 was 380 nM and the Emax was determined as 49%.

`O=C(c1cc(F)ccc1F)N1CCn2nc(OCc3ccccc3)cc2C1` [Example B114] had a melting point of 123.7 °C. In addition, at human mGluR5, the EC50 is 417 nM and the Emax is 72%.

`O=C(c1cccc(F)c1F)N1CCn2nc(OCc3ccccc3)cc2C1` [Example B115] registered a melting point of 122.7 °C. For the same compound, on human mGluR5, the EC50 was 537 nM and the Emax was determined as 40%.

Consider `N#Cc1cccc(COc2cc3n(n2)CCN(C(=O)c2cc(F)cc(F)c2)C3)c1` [Example B119], for which the melting point was 124 °C. On human mGluR5, the EC50 is over 30200 nM and the maximal response (Emax) is 15%.

Compound `O=C(c1ccc(F)cc1F)N1CCn2nc(OCc3cccc(F)c3)cc2C1` [Example B129] had a melting point of 115.4 °C. Moreover, on human mGluR5, the EC50 is 97.7 nM and the maximal response (Emax) was determined as 68%.

Compound `N#Cc1cccc(COc2cc3n(n2)CCN(C(=O)c2ccccc2Cl)C3)c1` [Example B131] showed a melting point of 116.8 °C. Also, at human mGluR5, the EC50 was over 30200 nM and the Emax was determined as 16%.

Take `O=C(c1cc(F)cc(F)c1)N1CCn2nc(OCc3ccccc3F)cc2C1` [Example B132]: the melting point worked out at 118.1 °C. In addition, at human mGluR5, the EC50 is 224 nM and the maximal response (Emax) is 42%.

Regarding `O=C(c1ccc(F)cc1F)N1CCn2nc(OCc3ccccc3F)cc2C1` [Example B133], the melting point is 132.8 °C. For the same compound, at human mGluR5, the EC50 is 166 nM and the Emax is 76%.

Compound `O=C(c1ccccc1F)N1CCn2nc(OCc3ccccc3F)cc2C1` [Example B134] yielded a melting point of 132.4 °C. Further, on human mGluR5, the EC50 is 141 nM and the maximal effect (Emax) stood at 71%.

In turn, `O=C(c1ccc(F)cc1)N1CCn2nc(OCc3ccccc3)cc2C1` [test compound, 2-(benzyloxy)-5-[(4-fluorophenyl)carbonyl]-4,5,6,7-tetrahydropyrazolo[1,5-a]pyrazine] had a melting point of 187.7 °C. Besides, the “% Reversal of amphetamine-induced hyperlocomotion” value (from here on “% Reversal”) in data set [1] (3 mg/kg test compound p.o. + 1 mg/kg Amph s.c.) was 14%. For the same compound, the “% Reversal” value in data set [1] (10 mg/kg test compound p.o. + 1 mg/kg Amph s.c.) was 32%. The “% Reversal” value in data set [1] (30 mg/kg test compound p.o. + 1 mg/kg Amph s.c.) is given as 44%. In addition, the “% Reversal” value in data set [1] (56.6 mg/kg test compound p.o. + 1 mg/kg Amph s.c.) amounted to 42%. Further, the “% Reversal” value in data set [1] (100 mg/kg test compound p.o. + 1 mg/kg Amph s.c.) came out at 41%.

These data come from patent US9029366B2, “Substituted bicyclic alkoxy pyrazole analogs as allosteric modulators of mGluR5 receptors” (Vanderbilt University, priority 2012, dated 2015).
